Each molecule was assayed against T1, Rat FAAH (Rattus norvegicus, UniProt P97612) (assay: Rat FAAH whole cell assay (FAAH_CHO cells)). Conditions: FAAH inhibition, whole CHO cells expressing rat FAAH.
T1 construct: expressed in transfected cells
T1 sequence (P97612 1-579): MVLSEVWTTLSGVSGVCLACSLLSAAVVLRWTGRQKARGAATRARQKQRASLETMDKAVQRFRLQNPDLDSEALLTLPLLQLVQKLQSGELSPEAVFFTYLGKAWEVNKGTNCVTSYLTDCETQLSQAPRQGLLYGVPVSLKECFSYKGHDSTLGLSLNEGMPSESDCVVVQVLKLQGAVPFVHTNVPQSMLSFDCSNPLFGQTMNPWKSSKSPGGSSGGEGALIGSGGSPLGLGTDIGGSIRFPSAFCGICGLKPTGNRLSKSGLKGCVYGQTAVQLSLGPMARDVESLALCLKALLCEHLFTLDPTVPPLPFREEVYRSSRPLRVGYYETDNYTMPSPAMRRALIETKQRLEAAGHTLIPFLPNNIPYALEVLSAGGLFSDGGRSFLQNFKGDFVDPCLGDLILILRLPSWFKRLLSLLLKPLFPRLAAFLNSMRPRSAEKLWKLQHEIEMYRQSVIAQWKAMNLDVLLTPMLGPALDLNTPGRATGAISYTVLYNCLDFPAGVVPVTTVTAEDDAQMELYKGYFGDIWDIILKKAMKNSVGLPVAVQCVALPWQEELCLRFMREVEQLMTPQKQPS
Assay type: cell-based
Excerpt: Murine (accession number NM_010173) and Rat FAAH (accession number NM_024132) was amplified by reverse transcriptase polymerase chain reaction (RT-PCR) from brain cDNA (BD Biosciences, San Jose, Calif.) using primers 1 and 2 or primers 1 and 3 respectively (see Table). The resulting PCR product was ligated into pCR4 TOPO and DNA sequence confirmed. The full length murine FAAH was subcloned into the mammalian expression vector, pcDEFneo using either EcoRI (murine) or KpnI and EcoRI (rat) restriction sites. Chinese hamster ovary cells (CHO) were transfected following manufacturers protocol (AMAXA). Forty eight hours post transfection, cells were trypsinized and transferred to 96 well plates in Iscove's DMEM media supplemented with 2 mM Glutamine, 10% fetal calf serum, 1 mg/ml geneticin and HT Supplement (0.1 mM sodium hypoxanthine, 0.016 mM thymidine) in order to isolate single clones. Following selection in geneticin, individual clones were selected and FAAH activity was assessed using a whole cell fluorescent anandamide assay, modified from Ramarao et al (2005). Following removal of tissue culture media cells were dislodged following addition of Cellstripper (Mediatech, Inc. Manassas, Va.) and transferred to 96 well black clear bottom assay plate, centrifuged at 1,000 rpm for 3 mins and media removed and replaced with assay buffer (50 mM Tris pH8.0, 1 mM EDTA, 0.1% fatty acid free BSA). The reaction was initiated by addition of fluorescent substrate, AMC Arachidonoyl Amide (Cayman Chemical, Ann Arbor, Mich.) to 1 μM and reaction allowed to proceed for 2 hours at room temperature. Release of fluorescence was monitored in a CytoFluor Multiplate Reader. Cells expressing the highest amount of FAAH activity were selected for study with FAAH inhibitors.
(American Radiolabeled Chemicals; 1 mCi/ml) with FAAH (Life Sciences (1995), 56, 1999-2005 and Journal of Pharmacology and Experimented Therapeutics (1997), 283, 729-734), Analytical. Biochemistry (2003), 318, 270-5. In addition, routine assays were performed monitoring hydrolysis of arachidonyl-7-amino-4-methylcoumarin amide (AAMCA) by following increase in fluorescence upon release of 7-amino 4-methyl coumarin (λEX=355 nm, (λEM=460 nm). Analytical. Biochemistry (2005). 343, 143-51
Assays are performed on either cell lysate or microsome fractions prepared as described or in whole cell format employing either the fluorescent substrate AAMCA (Cayman chemical, Ann Arbor, Mich.) or ^3H-anandmaide ([ETHANOLAMINE-1-3H] American Radiolabeled Chemicals; 1 mCi/ml). The cell lysate or microsome assay is performed in Costar black wall, clear bottom plates by adding FAAH_CHO (whole cell, cell lysate or microsome) in assay buffer (50 mM Phosphate, pH 8.0, 1 mM EDTA, 200 mM KCl, 0.2% glycerol, 0.1% fatty acid free BSA) to each well, followed by either DMSO or compound and allowed to incubate at 22-25° C. for fifteen minutes. AAMCA substrate was used to achieve a final concentration of 1 μM and reaction allowed to proceed at room temperature for 1-3 hours. Fluorescent release as a measure of FAAH activity was monitored by reading the plate in a CytoFluor Multiplate Reader ([…]). Whole cell assay is conducted with cells harvested after rinsing tissue culture flasks three times with Ca^++Mg^++ free PBS, incubating for 10 min in Enzyme free dissociation media and centrifuging for 5 minutes at 1,000 rpm in table top centrifuge. Cells are resuspended in assay buffer at desired cell number in (4×10^4 cells/assay in 96-well format; 1×10^4 cells/assay in 384-well format) and assayed as described.

IC50 | SMILES
30.1 nM | Cn1c(-c2ccccc2)nc(-c2ccc(C#N)cc2)c1Sc1ccc(Cl)cc1 [Ex 2, 4-{5-[(4-Chlorophenyl)thio]-1-methyl-2-phenyl-1H-imidazol-4-yl}benzonitrile]
702 nM | CS(=O)(=O)c1ccc(-c2nc(C3CCC3)[nH]c2Sc2ccc(Cl)cc2)cc1 [Ex 13]
146 nM | Cn1c(C2CCC2)nc(-c2ccc(S(C)(=O)=O)cc2)c1Sc1ccc(Cl)cc1 [Ex 14]
105 nM | CC(C)c1nc(-c2ccc(S(C)(=O)=O)cc2)c(Sc2ccc(Cl)cc2)n1C [Ex 29, 5-[(4-Chlorophenyl)thio]-2-isopropyl-1-methyl-4-[4-(methylsulfonyl)phenyl]-1H-imidazole]
1210 nM | Cn1cnc(-c2ccc(C#N)cc2)c1Sc1ccc(Cl)cc1 [Ex 33, 4-{5-[(4-chlorophenyl)thio]-1-methyl-1H-imidazol-4-yl}benzonitrile]
63.4 nM | Cn1c(-c2ccccn2)nc(-c2ccc(-c3nnco3)cc2)c1Sc1ccc(Cl)cn1 [Ex 36, 5-Chloro-2-({1-methyl-4-[4-(1,3,4-oxadiazol-2-yl)phenyl]-2-pyridin-2-yl-1H-imidazol-5-yl}thio)pyridine]
59.6 nM | Cn1c(-c2ccccn2)nc(-c2ccc(C(O)C(F)F)cc2)c1Sc1ccc(Cl)cc1 (stereo not drawn) [Ex 57, 1-(4-{5-[(4-Chlorophenyl)thio]-1-methyl-2-pyridin-2-yl-1H-imidazol-4-yl}phenyl)-2,2-difluoroethanol]
31.9 nM | Cn1c(-c2ccccn2)nc(-c2ccc(-n3ccnn3)cc2)c1Sc1ccc(Cl)cc1 [Ex 66]
870 nM | Cn1c(-c2ccccn2)nc(-c2ccc(N)cc2)c1Sc1ccc(Cl)cc1 [Ex 98, 4-{5-[(4-Chlorophenyl)thio]-1-methyl-2-pyridin-2-yl-1H-imidazol-4-yl}aniline]

— patent publication US8455528B2, “Imidazole derivatives useful as inhibitors of FAAH” (Merck Sharp & Dohme Corp., priority 2008, dated 2013)
